The results in this text go back to patent publication US5674905A, “Bicyclooctane and bicycloheptane derivatives” (James Black Foundation Limited, priority 1992, dated 1997).

Molecules are shown by their SMILES.

The target in assay [1] is T1, CCKB receptor (Mus musculus, UniProt P56481).
T1 construct: The cortex was dissected, weighed and homogenised in 40 ml ice-cold buffer; from tissue; host or cells: cerebral cortex membranes of male CD1 mice (Charles River)
T1 sequence (P56481 1-453): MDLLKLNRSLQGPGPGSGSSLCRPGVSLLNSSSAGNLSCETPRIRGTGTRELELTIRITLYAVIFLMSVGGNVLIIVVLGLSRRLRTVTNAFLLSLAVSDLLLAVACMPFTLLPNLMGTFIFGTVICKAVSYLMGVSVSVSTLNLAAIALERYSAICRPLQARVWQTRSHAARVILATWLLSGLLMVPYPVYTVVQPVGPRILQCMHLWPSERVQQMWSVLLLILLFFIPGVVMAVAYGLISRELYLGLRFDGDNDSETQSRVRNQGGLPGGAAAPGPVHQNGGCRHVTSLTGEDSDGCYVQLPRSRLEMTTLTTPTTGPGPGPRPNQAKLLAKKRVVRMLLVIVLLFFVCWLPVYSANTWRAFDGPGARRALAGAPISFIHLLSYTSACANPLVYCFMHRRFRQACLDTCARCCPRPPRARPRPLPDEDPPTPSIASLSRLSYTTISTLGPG
Kind of assay: radioligand binding assay at the CCKB receptor in mouse cortical membranes ([125I]-CCK8S). Particulars: 150 min at 21±3°; for Ki: read-out: CCKB pKi (converted). On the procedure: The compounds of the examples were tested for binding at the CCKB receptor in mouse cortical membranes by means of a radioligand binding assay. The procedure was as follows:
The whole brains from male mice (CD1 22-25 g; Charles River) were removed and placed in ice-cold buffer (pH7.2 @ 21±3 °) of the following composition (mM); 10 HEPES, 130 NaCl, 4.7 KCl, 5 MgCl2, 1 EDTA and containing 0.25 g.1^-1 bacitracin. The cortex was dissected, weighed and homogenised in 40 ml ice-cold buffer using a Teflon-in-glass homogeniser. The homogenate was centrifuged at 39,800 g for 20 min at @ 4°, the supernatant discarded and the pellet resuspended by homogenisation in fresh buffer. The homogenate was recentrifuged (39,800 g; 20 min @4°) and the final pellet was resuspended in HEPES buffer to give a tissue concentration of 2 mg.ml^-1 (original wet weight).
The membranes ([…]) were incubated for 150 min at 21±3° in a final volume of 0.5 ml with HEPES buffer containing [^125 I]-CCK8S (0.05 ml; 200 pM NEN 2200 Ci.mmol^-1) and competing compound. Total and non-specific binding of [^125 I]-CCK8S were defined using 0.05 ml of buffer and 0.05 ml of […] L-365,260, respectively. The assay was terminated by rapid filtration through pre-soaked Whatman GF/B filters using a Brandell Cell harvester. The filters were washed (3×3 ml) with ice-cold 50 mM Tris-HC1 (pH7.4 @ 4° C.) and bound radioactivity determined by counting (1 min.) in a gamma-counter.

Assay [2] deals with T2, gastrin receptors (Rattus norvegicus, UniProt P30553).
T2 construct: from tissue; host or cells: isolated perfused whole stomach of immature rats (33-50 g, ca. 21 days old)
T2 sequence (P30553 1-452): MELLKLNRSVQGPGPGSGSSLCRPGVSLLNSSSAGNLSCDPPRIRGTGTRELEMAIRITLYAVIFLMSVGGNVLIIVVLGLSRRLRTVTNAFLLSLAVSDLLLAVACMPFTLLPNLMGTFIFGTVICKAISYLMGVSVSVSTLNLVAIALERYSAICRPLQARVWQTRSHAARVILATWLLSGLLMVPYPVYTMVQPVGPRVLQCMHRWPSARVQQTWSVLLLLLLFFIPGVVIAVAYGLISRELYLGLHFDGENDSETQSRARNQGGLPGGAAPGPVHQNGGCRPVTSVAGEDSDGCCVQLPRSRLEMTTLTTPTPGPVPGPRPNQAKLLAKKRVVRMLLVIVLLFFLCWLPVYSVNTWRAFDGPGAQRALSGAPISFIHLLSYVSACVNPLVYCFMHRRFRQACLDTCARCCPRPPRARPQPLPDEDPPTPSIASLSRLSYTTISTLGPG
Kind of assay: gastrin antagonist activity in an immature rat stomach assay (pentagastrin-stimulated acid secretion). The settings on record: isolated immature rat stomach, cumulative pentagastrin dose-response curves; for Kb: read-out: Gastrin pKB (converted). The method, then:
The compounds of the examples were also tested for gastrin antagonist activity in an immature rat stomach assay. The procedure was as follows:
The oesophagus of immature rats (33-50 g, ca. 21 days old) was ligated at the level of the cardiac sphincter and the duodenal sphincter was cannulated. The stomach was excised and flushed with ca. 1 ml of unbuffered physiological saline solution. The fundus was punctured and cannulated. A further 4-5 ml of unbuffered solution was flushed through the stomach to ensure the preparation was not leaking. The stomach was lowered into a jacketed organ bath containing 40 ml of buffered solution containing 3×10^-8 M 5-methyl-furmethide, maintained at 37° and gassed vigorously with 95% O2 /5% CO2. The stomach was continuously perfused at a rate of 1 ml min^-1 with unbuffered solution gassed with 100% O2 with the perfusate passing over an internally referenced pH-electrode fixed 12 cm above the stomach.
After 120 min of stabilisation the drugs were added directly to the serosal solution in the organ bath and after a further 60 min cumulative pentagastrin dose-response curves were started. Changes in acid secretion were monitored and the curves analysed according to Black et. al., Br. J. Pharmacol., 1985, 86, 581.

`O=C(NCC12CC3CC(CC(C3)C1)C2)C1C2C=CC(c3ccccc32)C1C(=O)N1CCC[C@H]1C(=O)O` (stereo partly drawn) [Example 26, endo-cis-7-(2-S-carboxy-pyrrolidinocarbonyl)-8-(1-adamantylmethylaminocarbonyl)-5,6-benzo-bicyclo[2.2.2]oct-2-ene]: in assay [1], the Ki was 3160 nM. Further, the Kb in assay [2] was 1260 nM.

Consider `COC(=O)[C@@H]1CCCN1C(=O)C1C2C=CC(c3ccccc32)C1C(=O)NCC12CC3CC(CC(C3)C1)C2` (stereo partly drawn) [Example 30, endo-cis-7-(2-S-methoxycarbonyl-pyrrolidinocarbonyl)-8-(1-adamantylmethylaminocarbonyl)-5,6-benzo-bicyclo[2.2.2]oct-2-ene], for which the Ki in assay [1] was 501 nM. Besides, the Kb in assay [2] is 398 nM.

For `O=C(O)[C@@H]1[C@H](C(=O)NCC23CC4CC(CC(C4)C2)C3)[C@H]2C=C[C@@H]1c1ccccc12` (relative stereo) [Example 2, endo-(±)-cis-8-(1-adamantylmethylaminocarbonyl)-5,6-benzobicyclo[2.2.2]oct-2-ene-7-carboxylic acid], in assay [1], the Ki is 2510 nM. Moreover, the Kb in assay [2] was 1260 nM.

`O=C(O)C1C2C=CC(C2=C(c2ccccc2)c2ccccc2)C1C(=O)NCC12CC3CC(CC(C3)C1)C2` (racemic) [Example 39, (±)-endo and exo-cis-7-(1-adamantylmethylaminocarbonyl)-2-diphenylmethylene bicyclo-[2.2.1]hept-4-ene-6-carboxylic acid]: in assay [1], the Ki was 2000 nM. Besides, the Kb in assay [2] was 2510 nM.

Turning to `COC(=O)[C@H](C)NC(=O)C1C2CCC(CC2)C1C(=O)NCC12CC3CC(CC(C3)C1)C2` (mixture of isomers) [Example 25, cis-(±)-2-(1-S-Methoxycarbonyl-ethylaminocarbonyl)-3-(1-adamantylmethylaminocarbonyl)-bicyclo[2.2.2]octane], in assay [1], the Ki is 7940 nM. Further, in assay [2], the Kb is 1000 nM.

With `COC(=O)[C@H](C)NC(=O)C1C2C(C)=C(C)C(c3ccccc32)C1C(=O)NCC12CC3CC(CC(C3)C1)C2` (stereo partly drawn) [Example 19, exo-cis-7-(1-S-Methoxycarbonyl-ethylaminocarbonyl)-8-(1-adamantylmethylaminocarbonyl)-2,3-dimethyl-5,6-benzobicyclo[2.2.2]oct-2-ene], the Ki in assay [1] was 398 nM. Also, the Kb in assay [2] is 1580 nM.

For `O=C1CC2c3ccccc3C1C(C(=O)O)C2C(=O)NCC12CC3CC(CC(C3)C1)C2` (mixture of isomers) [Example 13, endo-(±)-cis-8-(1-adamantylmethylaminocarbonyl)-2-oxo-5,6-benzobicyclo[2.2.2]octane-7-carboxylic acid], the Ki in assay [1] was 2510 nM. Moreover, in assay [2], the Kb is 3160 nM.

Consider `O=C(NCC12CC3CC(CC(C3)C1)C2)C1C2C=CC(c3ccccc32)C1C(=O)N[C@H](Cc1c[nH]c2ccccc12)C(=O)O` (single isomer, unassigned) [Example 15, endo-cis-7-(2-R-(3-indolyl)-1-carboxy-ethylaminocarbonyl)-8-(1-adamantylmethylaminocarbonyl)-5,6-benzobicyclo[2.2.2]oct-2-ene], for which, in assay [1], the Ki is 1580 nM. Moreover, the Kb in assay [2] was 3160 nM.

For the compound `COC(=O)[C@H](C)NC(=O)C1C2C=CC(CC2)C1C(=O)NCC12CC3CC(CC(C3)C1)C2` (stereo partly drawn) [Example 24, endo-cis-2-(1-S-Methoxycarbonyl-ethylaminocarbonyl)-3-(1-adamantylmethylaminocarbonyl)-bicyclo[2.2.2]oct-5-ene], the Ki in assay [1] was 10000 nM. In assay [2], the Kb is 1260 nM.

`COC(=O)[C@H](C)NC(=O)C1C2CCC(c3ccccc32)C1C(=O)NCC12CC3CC(CC(C3)C1)C2` (stereo partly drawn) [Example 22, endo-cis-7-(1-S-Methoxycarbonyl-ethylaminocarbonyl)-8-(1-adamantylmethylaminocarbonyl)-2,3-benzobicyclo[2.2.2]octane]: the Ki in assay [1] was 631 nM. Besides, in assay [2], the Kb is 200 nM.

Regarding `COC(=O)C12CC(c3ccccc31)C(C(=O)NCC13CC4CC(CC(C4)C1)C3)C2C(=O)N[C@@H](Cc1ccccc1)C(=O)Nc1cc(C(=O)O)cc(C(=O)O)c1` (mixture of isomers) [Example 55, (±)-1-methoxycarbonyl-endo-cis-6-(1S-(3,5-dicarboxyphenylaminocarbonyl)-2-phenylethylamino-carbonyl)-7-(1-adamantylmethylaminocarbonyl)-2,3-benzo-bicyclo[2.2.1]heptane], the “CCKB pKi” value in assay [1] was 7.6. For the same compound, the “Gastrin pKB” value in assay [2] (60 min) came to 6.9.
